Results: patent publication US20230381774A1, “MICROFLUDIC LAB-ON-CHIP DEVICE, MATRIX, SMALL MOLECULES AND THREE-DIMENSIONAL SPHEROIDS FOR CELL REPROGRAMMING” (The Regents of the University of California, priority 2022, published 2023)
Entries after “also recorded” stand apart in the source; their conditions may differ.

What was measured:
Assay type in all cases: cell-based, mouse
iN cells = assay: Immunostaining of mature neuronal markers in iN cells; conditions: iN cells derived in presence of inhibitor
Method: (§1) For immunostaining, cells were fixed with 4% paraformaldehyde (Electron Microscopy Sciences), permeabilized with 0.5% Triton-X-100 (Sigma), and blocked with 5% donkey serum (Jackson Immunoresearch) in phosphate buffered saline (PBS). For actin-cytoskeleton staining, samples were incubated with fluorescein isothiocyanate-conjugated phalloidin (Invitrogen) for 1 hour. Primary antibodies were incubated for 1 hour at room temperature or overnight at 4° C., followed by 1-hour incubation with Alexa 488 and/or Alexa 546-labeled secondary antibodies (Molecular Probes). Nuclei were stained with 4,6-diamino-2-phenylindole (DAPI) (Invitrogen).

calponin and αSMA = assay: Mesenchymal marker expression (immunostaining, qRT-PCR, Western blot)
Method: as §1
RNA was isolated from samples using Trizol® (Ambion) according to the manufacturer's instructions. For cDNA synthesis, 500 ng of RNA was reverse transcribed using Maxima First Strand cDNA Synthesis Kit (ThermoFisher Scientific). Template DNA was amplified using Maxima SYBR Green/Fluorescein qPCR Master Mix (ThermoFisher Scientific) on a CFX qPCR machine (Bio-Rad). qRT-PCR data were analyzed using CFX Manager 3.1 (Bio-Rad) and gene expression levels were normalized to 18S.
Fibroblasts were lysed and collected in Laemmli buffer ([…] Tris-HCl, 10% glycerol, 2% SDS, 5% 2-mercaptoethanol, 0.002% bromophenol blue) containing RIPA buffer (50 mM Tris-HCl, 150 mM NaCl, 1% Triton-X-100, 0.1% SDS, 10 mM NaF, 0.5% sodium deoxycholate) along with protease inhibitors (PMSF, Na3VO4 and Leupeptin) on ice. Protein lysates were centrifuged to pellet cell debris, and the supernatant was collected and used in further analysis. Protein samples were run using SDS-PAGE and transferred to polyvinylidene fluoride (PVDF) membranes. Membranes were blocked in 3% nonfat milk and incubated with primary antibodies overnight. Primary antibodies include pFAK, FAK, αSMA, Calponin, pERK, ERK, and GAPDH. Membranes were washed with Tris-Buffered Saline+0.05% Tween-20 and incubated with HRP-conjugated IgG secondary antibodies (Santa Cruz Biotechnologies) for one hour. Protein bands were visualized using Western Lightning™ Plus—Enhanced Chemiluminscence Substrate (Perkin Elmer Life & Analytical Sciences) and imaged on a ChemiDoc XRS system (Bio-Rad).

histone marks = assay: Immunofluorescence of histone marks in non-transduced fibroblasts; conditions: global; 10 μM blebbistatin or 5 μM PF573228, 2 hours, vs control
Method: as §1
Quantification of histone intensity per nuclei was performed using an ImageJ macro. DAPI-stained nuclei were segmented using gaussian blur, thresholding, watershed, and analyze particle functions to identify individual nuclei. This mask was applied to the corresponding stained fluorescence channel to quantify the average fluorescence intensity within each nucleus.

[1] = test system: histone acetyltransferase (HAT); assay: HAT activity assay on nuclear extracts of treated fibroblasts; conditions: 10 μM blebbistatin or 5 μM PF573228, 2 hours, vs DMSO
Method: (§2) Nuclear protein extractions were isolated from 5×10^5 fibroblasts treated with vehicle control (DMSO), 10 μM blebbistatin or 5 μM PF573228 for 2 hours using a nuclear extraction kit (EpiGentek, OP-0002), in accordance with the manufacturer's instructions. HAT, HDAC, H3K4 HMT, H3K4 HDM and DNMT activity were measured using the HAT activity/inhibition assay (EpiGentek, P-4003-048), HDAC activity/inhibition assay (EpiGentek, P-4034-096), Histone methyltransferase (H3K4 specific) activity/inhibition assay (EpiGentek, P-3002-1), Histone Demethylase (H3K4 specific) activity/inhibition assay (EpiGentek, P-3074-48), and DNMT activity/inhibition assay (EpiGentek, P-3009-048), respectively. Per the manufacturer's instructions, 20 μg of nuclear extract was added into the assay wells and incubated at 37° C. for 90 minutes. After adding the color developer solution, the absorbance was measured using a plate reader (Infinite […], 30050303) at 450 nm for all the assays with the exception of the Histone Demethylase (H3K4 specific) activity/inhibition assay where we measured the fluorescence using a fluorescence microplate reader at 530 EX/590 EM nm.

[2] = test system: H3K4-specific histone methyltransferase (HMT); assay: H3K4 HMT activity assay on nuclear extracts of treated fibroblasts; conditions: 10 μM blebbistatin or 5 μM PF573228, 2 hours, vs DMSO
Method: as §2

[3] = test system: H3K4-specific histone demethylase (HDM); assay: H3K4 HDM activity assay on nuclear extracts of treated fibroblasts; conditions: 10 μM blebbistatin or 5 μM PF573228, 2 hours, vs DMSO
Method: as §2

[4] = test system: DNA methyltransferase (DNMT); assay: DNMT activity assay on nuclear extracts of treated fibroblasts; conditions: 10 μM blebbistatin or 5 μM PF573228, 2 hours, vs DMSO
Method: as §2

Row | HAT activity [1] | H3K4-specific HMT activity [2] | H3K4-specific HDM activity [3] | Compound | mature neuronal marker expression of derived iN cells (iN cells) | calponin and αSMA expression in BAM-transduced fibroblasts (calponin and αSMA; treated for 2 days) | euchromatin marks (AcH3, H3K4me3, H3K4me1) (histone marks) | heterochromatin marks (H3K27me3, H3K9me3) (histone marks) | DNMT activity [4] | calponin- and αSMA-positive cells (calponin and αSMA; non-transduced fibroblasts) | calponin and αSMA expression, gene and protein level (calponin and αSMA; non-transduced fibroblasts, day 3) | Eln and DCN expression (calponin and αSMA; qRT-PCR, non- and BAM-transduced fibroblasts)
1 | differences | differences | differences | CS(=O)(=O)c1cccc(CNc2nc(Nc3ccc4c(c3)CCC(=O)N4)ncc2C(F)(F)F)c1 [PF573228] | expressed neuronal markers, including NeuN, MAP2, and synapsin; also recorded: displaying a typical neuronal morphology and co-expressing mature neuronal markers, NeuN, MAP2 and synapsin | decreased | global increases in AcH3, H3K3me3 and H3K4me1 marks | a concurrent decrease in H3K9me3 and H3K27me3 | a reduction in 5-mC marks and DNMT activity |  |  | 
2 | increased | increased | reduced | Cc1ccc2c(c1)C(=O)C1(O)CCN(c3ccccc3)C1=N2 (stereo not drawn) [blebbistatin] | expressed NeuN, microtubule-associated protein 2 (MAP2), and synapsin |  | an increase in AcH3, H3K4me3, and H3K4me1 marks | decreased | a decrease in DNA methyltransferase (DNMT) activity | less calponin and α-smooth muscle actin (SMA)-positive cells | decreased at the gene and protein level by day 3 | downregulated the expression of other mesenchymal and fibroblast-associated genes, Eln and DCN
